# Laboratory results from ChEMBL document CHEMBL3301361, “Experimental in vitro DMPK and physicochemical data on a set of publicly disclosed compounds”.
# Tests used:
# in vitro [1] = settings: hepatocytes
# physchem [2] = settings: octan-1-ol/water
# in vitro [3] = settings: human, plasma
# physchem [4] = settings: pH 7.4 buffer
# in vitro [5] = settings: SD, HW or BN, rat, plasma
# in vitro [6] = settings: human
SMILES,hepatocyte CLint (in vitro [1]) [µL/min/1e6 cells],"logD (physchem [2]; pH 7.4, LogD7.4)",further results
O=C(O)c1cc2cc(OCc3ccccc3)ccc2[nH]1,25.7,0.4,
O=C(NCc1ccc(OC(F)(F)F)cc1)C1c2ccccc2C(=O)N1C1CCOCC1 (stereo not drawn),,,fraction unbound at 5 h (in vitro [3]; PPB): 0.0948; solubility thermodynamic (physchem [4]): 83.2 µM; fraction unbound at 5 h (in vitro [5]): 0.132
CC[C@@]1(O)C(=O)OCc2c1cc1n(c2=O)Cc2cc3c(CN(C)C)c(O)ccc3nc2-1 [TOPOTECAN],3.24,0.31,
CN(C)CCC=C1c2ccccc2C=Cc2ccccc21 [CYCLOBENZAPRINE],,2.83,microsomal CLint (in vitro [6]; microsomes): 4.07 µL/min/mg; fraction unbound at 5 h (in vitro [3]; PPB): 0.0784; fraction unbound at 5 h (in vitro [5]): 0.117
Cc1cccc2c(O)nc(-c3ccc(C(F)(F)F)cc3)nc12,45.7,,
CN(C(=O)Cc1ccc(-n2cnnn2)cc1)C1CCN(Cc2ccc(C(F)(F)F)cc2)CC1,,,fraction unbound at 5 h (in vitro [3]; PPB): 0.0872; solubility thermodynamic (physchem [4]): 17.8 µM; fraction unbound at 5 h (in vitro [5]): 0.0606
O=c1cc(-c2ccc(Br)cc2)oc2ccccc12,< 3,,
CC(C)=CCC[N+]12CCC(CC1)[C@@H](OC(=O)[C@](C)(c1ccccc1)N1CCCCC1)C2,101,,
O=c1n(CCCN2CCN(c3cccc(Cl)c3)CC2)nc2ccccn12 [TRAZODONE],,2.67,fraction unbound at 5 h (in vitro [3]): 0.03; solubility thermodynamic (physchem [4]): 891 µM; fraction unbound at 5 h (in vitro [5]): 0.124
Cc1ccc(S(=O)(=O)Nc2c(C(=O)N[C@@H](C)C(C)(C)C)c(C)nn2C2CCC2)cc1,,1.57,microsomal CLint (in vitro [6]; microsomes): 11 µL/min/mg; fraction unbound at 5 h (in vitro [3]; PPB): 0.0183; fraction unbound at 5 h (in vitro [5]): 0.0209
COC1=CC(c2cc3ccccc3[nH]2)=N/C1=C\c1[nH]c(C)cc1C [OBATOCLAX],22.4,2.55,
C[C@@](C(=O)O[C@H]1C[N+]2(CCCc3cncnc3)CCC1CC2)(c1ccccc1)N1CCCCC1,66,,
CN(C)CC[C@H](CSc1ccccc1)Nc1ccc(S(=O)(=O)NC(=O)c2ccc(N3CCN(Cc4ccccc4-c4ccc(Cl)cc4)CC3)cc2)cc1[N+](=O)[O-] [ABT 737],9.55,,
Cc1ccccc1-c1c(C(=O)O)n(CCCOc2cccc3ccccc23)c2ccccc12,123,3.89,
CS(=O)(=O)N1CC[C@H](N(Cc2ccccc2Cl)c2ccc(C#N)c(Cl)c2)C1,72.4,,logD (physchem [2]; pH 7.4): 4
CCC1(CCC(C)C)C(=O)NC(=O)NC1=O [AMOBARBITAL],11.8,,
N[C@@H](C(=O)N[C@@H]1C(=O)N2C(C(=O)O)=C(Cl)CC[C@H]12)c1ccccc1 [LORACARBEF ANHYDROUS],< 3,,
Cc1c(C(=O)NC2C3CC4CC(C3)CC2C4)cnn1-c1ccc(C(=O)O)cc1 (stereo not drawn),< 3,,
CO[C@H]1/C=C/O[C@@]2(C)Oc3c(C)c(O)c4c(O)c(cc(O)c4c3C2=O)NC(=O)/C(C)=C\C=C\[C@H](C)[C@H](O)[C@@H](C)[C@@H](O)[C@@H](C)[C@H](OC(C)=O)[C@@H]1C [RIFAMYCIN],< 3,1.19,
C[C@@](C(=O)O[C@H]1C[N+]2(CC(=O)Nc3ccncn3)CCC1CC2)(c1ccccc1)N1CCCCC1,39,,
Cc1cc(NC(=O)Nc2cccc3ccccc23)no1,95.5,,
Cc1nn(-c2ccccc2)c(NS(=O)(=O)C2CCCCC2)c1C(=O)N[C@@H](C)C(C)(C)C,,1.75,fraction unbound at 5 h (in vitro [3]; PPB): 0.0149; solubility thermodynamic (physchem [4]): 398 µM; fraction unbound at 5 h (in vitro [5]): 0.0163
COc1ccc(C)c(Nc2ncc3ccn(-c4ccccn4)c3n2)c1,83.2,,

SMILES,hepatocyte CLint (in vitro [1]) [µL/min/1e6 cells],"logD (physchem [2]; pH 7.4, LogD7.4)",further results
CC(C(=O)O)c1cccc(Oc2ccccc2)c1 (stereo not drawn) [FENOPROFEN],,0.71,microsomal CLint (in vitro [6]; liver microsomes): 10.2 µL/min/mg; fraction unbound at 5 h (in vitro [5]): 0.0146
COc1cc2cc(-c3ccc(O)cc3O)nc(C)c2cc1OC,> 150,,
Cc1ccc(C[C@@H](C(=O)O)N2CCC(CN3CCC(Oc4ccc(Cl)c(Cl)c4)CC3)CC2)cc1,< 3,,
CCCCC[C@H](c1ccc(C(=O)O)c(Oc2cccc(Br)c2)c1)N1CCC[C@H](n2cc(C)c(=O)[nH]c2=O)C1,30.2,1.69,
CC1(C)CCC(c2ccc(Cl)cc2)=C(CN2CCN(c3ccc(C(=O)NS(=O)(=O)c4ccc(N[C@H](CCN5CCOCC5)CSc5ccccc5)c(S(=O)(=O)C(F)(F)F)c4)cc3)CC2)C1 [NAVITOCLAX],9.77,0.64,
CC1(C)CNC(=O)c2sc(N3CCOCC3)nc2C1,,1.29,fraction unbound at 5 h (in vitro [3]; PPB): 0.701; solubility thermodynamic (physchem [4]): 251 µM; fraction unbound at 5 h (in vitro [5]): 0.517
C[C@H]1Cc2c([nH]c3cc(Cl)c(F)cc23)[C@@]2(N1)C(=O)Nc1ccc(Cl)cc12 [CIPARGAMIN],8.71,,
C[C@@](C(=O)O[C@H]1C[N+]2(CCOc3ccc(Cl)cc3)CCC1CC2)(c1ccccc1)N1CCCCC1,60,,
COc1cc2nccc(Oc3ccc(NC(=O)C4(C(=O)Nc5ccc(F)cc5)CC4)cc3)c2cc1OC [CABOZANTINIB],3.16,,
O=C(Nc1cccc(-c2nnn[nH]2)c1)c1cc(F)cc2nc[nH]c12,67.6,0.29,
C[C@@](C(=O)O[C@H]1C[N+]2(CCOCCc3ccccc3)CCC1CC2)(c1ccccc1)N1CCCCC1,77,,
CN1CCN(c2ccc(-c3cnc4cccc(-c5cc(F)c(CN6CCOCC6)c(F)c5)c4n3)cc2)CC1,14.4,,
O=C(NCCc1ccccc1)c1cc(-n2ncc(=O)[nH]c2=O)ccc1Cl,,0.74,microsomal CLint (in vitro [6]; liver microsomes): < 3 µL/min/mg; fraction unbound at 5 h (in vitro [3]; PPB): 0.0251; fraction unbound at 5 h (in vitro [5]): 0.0391
Nc1ccc2c(-c3ccncc3)c(-c3ccc(F)cc3)[nH]c2n1,117,,
Cc1cn([C@H]2CCCN([C@H](CC3CCCCC3)c3ccc(C(=O)O)c(Oc4cccc(Cl)c4)c3)C2)c(=O)[nH]c1=O,42.7,,
CC(C)C[C@H](N)C(=O)NC[C@H](O)C[C@@H](N)CC(=O)NN(C)CC(=O)O,< 3,,
CCC(C)(C)C[C@H](c1ccc(C(=O)O)c(Oc2cccc(Cl)c2)c1)N1CCC[C@H](n2cc(C)c(=O)[nH]c2=O)C1,117,1.37,
Cc1c(Sc2ccc(Cl)cc2)c2c(-c3cnccn3)cccc2n1CC(=O)O,,0.03,microsomal CLint (in vitro [6]; microsomes): 8 µL/min/mg; fraction unbound at 5 h (in vitro [3]; PPB): 0.0124; fraction unbound at 5 h (in vitro [5]): 0.024
COc1ccc(N(C(=O)c2ccccc2)C(C(=O)NC[C@@H](C)O)c2ccccc2F)c(OC)c1 (stereo partly drawn),> 150,,
C[C@@H]1Cc2c([nH]c3cc(Cl)c(F)cc23)[C@]2(N1)C(=O)Nc1ccc(Cl)cc12,7.24,,
O=C(Nc1cccc(-c2nnn[nH]2)c1)c1cccc2[nH]cnc12,44.7,-0.05,
O=c1c2ccccc2[nH]n1Cc1c[nH]c2ccccc12,4.37,,
O=C([C@@H]1CCCN1)N1CCN(c2nc(NCc3ccc(Cl)cc3Cl)c3cccnc3n2)CC1,6,2.41,

SMILES,hepatocyte CLint (in vitro [1]) [µL/min/1e6 cells],"logD (physchem [2]; pH 7.4, LogD7.4)",further results
C[C@@](C(=O)O[C@H]1C[N+]2(CCCc3cc4ccccc4s3)CCC1CC2)(c1ccccc1)N1CCCCC1,65,,
Cc1ccccc1C(OCCN(C)C)c1ccccc1 (stereo not drawn) [ORPHENADRINE],> 150,1.47,
CNC(=O)c1c(F)cccc1Nc1nc(Nc2cc3c(cc2OC)CCN3C(=O)CN(C)C)nc2[nH]ccc12,21.9,2.61,
c1ccc(Nc2nc3c(s2)CCCc2[nH]ncc2-3)nc1,36.3,,
O=C(c1ccc(O)cc1O)N1CCCC1,> 150,,
CN(C)C(=O)[C@H](O)[C@H](Cc1ccccc1)NC(=O)c1cc2cc(Cl)ccc2[nH]1,,3.6,fraction unbound at 5 h (in vitro [3]; PPB): 0.0219; solubility thermodynamic (physchem [4]): 22.9 µM; fraction unbound at 5 h (in vitro [5]): 0.0268
Nc1cc(C(=O)Nc2cccc(-c3nnn[nH]3)c2)cc(C(F)(F)F)c1,23.4,0.2,
CC(C)OC(=O)C(C)(C)Oc1ccc(C(=O)c2ccc(Cl)cc2)cc1 [FENOFIBRATE],54,,
CC(C)N1C(=O)[C@H](NC(=O)[C@@H](Cc2ccccc2OC(F)(F)F)NC(=O)OC(C)(C)C)CCc2ccccc21,,,fraction unbound at 5 h (in vitro [3]; PPB): 0.003; solubility thermodynamic (physchem [4]): 5 µM; fraction unbound at 5 h (in vitro [5]): 0.003
NCCc1ccc(O)c2nc(O)sc12,> 150,,logD (physchem [2]; pH 7.4): 0.33
O=C1NC(=O)C(c2ccccc2)(c2ccccc2)N1 [PHENYTOIN],,2.41,fraction unbound at 5 h (in vitro [3]; PPB): 0.129; solubility thermodynamic (physchem [4]): 79.4 µM; fraction unbound at 5 h (in vitro [5]): 0.179
CCNC(=O)c1ccc(C)c(-n2cnc3ccc(N4CCN(C)CC4)cc3c2=O)c1,< 3,1.47,
CSc1c(C(=O)NC2C3CC4CC(C3)CC2C4)cnn1-c1ccc(C(=O)O)cc1 (stereo not drawn),12.3,,
Oc1nc2c(O)ccc(CCNCCCSCCOCCc3cccc4ccccc34)c2s1,,,microsomal CLint (in vitro [6]; liver microsomes): 36 µL/min/mg; fraction unbound at 5 h (in vitro [5]): 0.0122
O=C(O)c1cc2ccccc2[nH]1 [INDOLE-2-CARBOXYLIC ACID],11,,
COc1cc(C)c(S(=O)(=O)N(C)CCOCC(=O)N2CCC(C3CCN(C)CC3)CC2)c(C)c1,,0.3,fraction unbound at 5 h (in vitro [3]; PPB): 0.483; fraction unbound at 5 h (in vitro [5]): 0.511
Cc1ccccc1CN1CCC(N2CCC(n3c(=O)[nH]c4ccccc43)CC2)CC1,,,logD (physchem [2]; pH 7.4): 2.68; fraction unbound at 5 h (in vitro [3]): 0.355; fraction unbound at 5 h (in vitro [5]): 0.299
Cc1nn(C)c(C)c1-c1cccc2c(CCCOc3cccc4ccccc34)c(C(=O)O)[nH]c12,61.7,,
CCC(=C(c1ccc(O)cc1)c1ccc(OCCN(C)C)cc1)c1ccccc1,56.2,,
O=C(O)CN1C(=O)C(=O)c2ccccc21,26.9,,
Cn1cc[nH]c1=S [METHIMAZOLE],,-0.42,fraction unbound at 5 h (in vitro [3]; PPB): 0.81; fraction unbound at 5 h (in vitro [5]): 0.814
CO[C@H]1C[C@@H]2CC[C@@H](C)[C@@](O)(O2)C(=O)C(=O)N2CCCC[C@H]2C(=O)O[C@H]([C@H](C)C[C@@H]2CC[C@@H](OC(=O)C(C)(CO)CO)[C@H](OC)C2)CC(=O)[C@H](C)/C=C(\C)[C@@H](O)[C@@H](OC)C(=O)[C@H](C)C[C@H](C)/C=C/C=C/C=C/1C [TEMSIROLIMUS],> 150,,
C[C@@](C(=O)O[C@H]1C[N+]2(CCCOc3ccc(F)cc3)CCC1CC2)(c1ccccc1)N1CCCCC1,66,,
